Reference: PubChem BioAssay AID272 (DTP/NCI, 2004)
Several values for one entry are separate records, joined by “and”; a condition that tells them apart may be missing. Equal values may be shown once. Inconclusive results are not listed.

Tested on: Lewis lung carcinoma i.m., BDF1 mice, T/C %
Assay: NCI In Vivo Anticancer Drug Screen. Data for tumor model Lewis Lung Carcinoma (intramuscular) in B6D2F1 (BDF1) mice
Settings: schedule: Q01DX011 (ip)
In short: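 Mice carrying transplantable tumours received test compound. Survival or tumour size was recorded and expressed as the treated-group value (T) divided by the vehicle-treated control-group value (C).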

[1] = endpoint: median survival time, dose: 6.25 mg/kg/injection, vehicle: saline, higher = longer survival
[2] = endpoint: mean tumor weight, dose: 2.0 mg/kg/injection, vehicle: saline, higher = larger tumour
[3] = endpoint: median survival time, dose: 0.5 mg/kg/injection, vehicle: saline, higher = longer survival
[4] = endpoint: median survival time, dose: 1.0 mg/kg/injection, vehicle: saline, higher = longer survival
[5] = endpoint: mean tumor weight (est.), dose: 0.25 mg/kg/injection, vehicle: saline, higher = larger tumour
[6] = endpoint: mean tumor weight (est.), dose: 0.5 mg/kg/injection, vehicle: saline, higher = larger tumour
[7] = endpoint: mean tumor weight (est.), dose: 1.0 mg/kg/injection, vehicle: saline, higher = larger tumour
[8] = endpoint: median survival time, dose: 0.25 mg/kg/injection, vehicle: saline, higher = longer survival
[9] = endpoint: mean tumor weight (est.), dose: 12.5 mg/kg/injection, vehicle: saline with Tween-80, higher = larger tumour
[10] = endpoint: mean tumor weight (est.), dose: 25.0 mg/kg/injection, vehicle: saline with Tween-80, higher = larger tumour
[11] = endpoint: median survival time, dose: 12.5 mg/kg/injection, vehicle: saline with Tween-80, higher = longer survival
[12] = endpoint: median survival time, dose: 25.0 mg/kg/injection, vehicle: saline with Tween-80, higher = longer survival

For `Nc1nc(SCc2ccccc2)c2[nH]cnc2n1`, the T/C (endpoint: mean tumor weight (est.), dose: 0.39 mg/kg/injection, vehicle: saline, higher = larger tumour) was 86 % of control, the T/C (endpoint: mean tumor weight (est.), dose: 0.78 mg/kg/injection, vehicle: saline, higher = larger tumour) was 91 % of control and the T/C (endpoint: mean tumor weight (est.), dose: 1.56 mg/kg/injection, vehicle: saline, higher = larger tumour) was 78 % of control. For the same compound, the T/C (endpoint: mean tumor weight (est.), dose: 6.25 mg/kg/injection, vehicle: saline, higher = larger tumour) was 70 % of control, the T/C (endpoint: mean tumor weight, dose: 0.78 mg/kg/injection, vehicle: Klucel (hydroxypropylcellulose) (HPC), higher = larger tumour) was 105 % of control and the T/C (endpoint: mean tumor weight, dose: 1.56 mg/kg/injection, vehicle: Klucel (hydroxypropylcellulose) (HPC), higher = larger tumour) was 92 % of control. For the same compound, the T/C (endpoint: mean tumor weight, dose: 3.12 mg/kg/injection, vehicle: Klucel (hydroxypropylcellulose) (HPC), higher = larger tumour) was 87 % of control, the T/C (endpoint: median survival time, dose: 0.39 mg/kg/injection, vehicle: saline, higher = longer survival) was 103 % of control and the T/C (endpoint: median survival time, dose: 1.56 mg/kg/injection, vehicle: Klucel (hydroxypropylcellulose) (HPC), higher = longer survival) was 102 % of control. The T/C (endpoint: median survival time, dose: 1.56 mg/kg/injection, vehicle: saline, higher = longer survival) was 96 % of control and the T/C [1] was 111 % of control.

`O=C1N[C@@H]([C@H]2CC[C@H](Cl)CN2)C(=O)N[C@H]1[C@H]1CC[C@H](Cl)CN1` was tested, and the T/C (endpoint: mean tumor weight, dose: 0.5 mg/kg/injection, vehicle: saline, higher = larger tumour) was 67 % of control and 92 % of control, the T/C (endpoint: mean tumor weight, dose: 1.0 mg/kg/injection, vehicle: saline, higher = larger tumour) was 65 % of control and 87 % of control and the T/C [2] was 42 % of control and 64 % of control. For the same compound, the T/C [3] was 105 % of control and 116 % of control and the T/C [4] was 95 % of control and 119 % of control.

In the case of `COc1cc2c(c(OC)c1OC)-c1ccc(OC)c(=O)cc1[C@@H](NC=O)CC2`, the T/C [5] is reported as 90 % of control, the T/C [6] is reported as 73 % of control and the T/C [7] is reported as 49 % of control. The T/C [8] was 90 % of control, the T/C [3] was 116 % of control and the T/C [4] was 88 % of control.

In the case of `Nc1nc2n[nH]nc2c(=O)[nH]1`, the T/C (endpoint: mean tumor weight, dose: 25.0 mg/kg/injection, vehicle: other, higher = larger tumour) is reported as 81 % of control and the T/C (endpoint: mean tumor weight, dose: 100.0 mg/kg/injection, vehicle: other, higher = larger tumour) is reported as 64 % of control.

For `N=[N+]=CC(=O)OCC(N)C(=O)O` (stereo not given), the T/C [2] was 94 % of control, the T/C (endpoint: mean tumor weight, dose: 4.0 mg/kg/injection, vehicle: saline, higher = larger tumour) was 71 % of control and the T/C (endpoint: mean tumor weight, dose: 8.0 mg/kg/injection, vehicle: saline, higher = larger tumour) was 27 % of control. The T/C (endpoint: median survival time, dose: 2.0 mg/kg/injection, vehicle: saline, higher = longer survival) was 96 % of control and 107 % of control, the T/C (endpoint: median tumor weight (est.), dose: 2.0 mg/kg/injection, vehicle: saline, higher = larger tumour) was 79 % of control and the T/C (endpoint: median tumor weight (est.), dose: 8.0 mg/kg/injection, vehicle: saline, higher = larger tumour) was 50 % of control.

For `NC1CONC1=O` (stereo not given), the T/C (endpoint: mean tumor weight (est.), dose: 50.0 mg/kg/injection, vehicle: saline, higher = larger tumour) was 95 % of control, the T/C (endpoint: mean tumor weight (est.), dose: 100.0 mg/kg/injection, vehicle: saline, higher = larger tumour) was 93 % of control and the T/C (endpoint: mean tumor weight (est.), dose: 200.0 mg/kg/injection, vehicle: saline, higher = larger tumour) was 84 % of control. The T/C (endpoint: mean tumor weight (est.), dose: 400.0 mg/kg/injection, vehicle: saline, higher = larger tumour) was 76 % of control, the T/C (endpoint: median survival time, dose: 50.0 mg/kg/injection, vehicle: saline, higher = longer survival) was 94 % of control and the T/C (endpoint: median survival time, dose: 100.0 mg/kg/injection, vehicle: saline, higher = longer survival) was 106 % of control. For the same compound, the T/C (endpoint: median survival time, dose: 200.0 mg/kg/injection, vehicle: saline, higher = longer survival) was 106 % of control and the T/C (endpoint: median survival time, dose: 400.0 mg/kg/injection, vehicle: saline, higher = longer survival) was 124 % of control.

For `CCCCn1cnc2c(N)ncnc21`, the T/C [9] was 81 % of control, the T/C [10] was 95 % of control and the T/C (endpoint: mean tumor weight (est.), dose: 50.0 mg/kg/injection, vehicle: saline with Tween-80, higher = larger tumour) was 77 % of control. For the same compound, the T/C [11] was 93 % of control, the T/C [12] was 97 % of control and the T/C (endpoint: median survival time, dose: 50.0 mg/kg/injection, vehicle: saline with Tween-80, higher = longer survival) was 87 % of control.

For `CN1Cc2c(ccc3c2OCO3)[C@@H]2[C@H](O)Cc3cc4c(cc3[C@@H]21)OCO4`, the T/C (endpoint: mean tumor weight, dose: 62.5 mg/kg/injection, vehicle: saline, higher = larger tumour) was 75 % of control, the T/C (endpoint: mean tumor weight, dose: 125.0 mg/kg/injection, vehicle: saline, higher = larger tumour) was 47 % of control and the T/C (endpoint: mean tumor weight, dose: 500.0 mg/kg/injection, vehicle: saline, higher = larger tumour) was 32 % of control. The T/C (endpoint: median survival time, dose: 62.5 mg/kg/injection, vehicle: saline, higher = longer survival) was 91 % of control, the T/C (endpoint: median survival time, dose: 125.0 mg/kg/injection, vehicle: saline, higher = longer survival) was 95 % of control and the T/C (endpoint: median survival time, dose: 500.0 mg/kg/injection, vehicle: saline, higher = longer survival) was 93 % of control.

For `COc1cc([C@@H]2c3cc4c(c(O)c3C[C@H]3COC(=O)[C@@H]32)OCO4)cc(OC)c1OC`, the T/C (endpoint: mean tumor weight (est.), dose: 0.5 mg/kg/injection, vehicle: Klucel (hydroxypropylcellulose) (HPC), higher = larger tumour) was 106 % of control and the T/C (endpoint: mean tumor weight (est.), dose: 2.0 mg/kg/injection, vehicle: Klucel (hydroxypropylcellulose) (HPC), higher = larger tumour) was 93 % of control.

With `ClC1=NC(Cl)C(Cl)=N/C1=N\c1ncn[nH]1` (stereo not given) the T/C (endpoint: median survival time, dose: 4.0 mg/kg/injection, vehicle: saline, higher = longer survival) was 108 % of control, the T/C (endpoint: median survival time, dose: 8.0 mg/kg/injection, vehicle: saline, higher = longer survival) was 91 % of control and the T/C (endpoint: median survival time, dose: 16.0 mg/kg/injection, vehicle: saline, higher = longer survival) was 92 % of control.

For `CC(=O)Nc1cc(F)c([N+](=O)[O-])cc1[N+](=O)[O-]`, the T/C (endpoint: median survival time, dose: 1.25 mg/kg/injection, vehicle: saline with Tween-80, higher = longer survival) was 108 % of control, the T/C (endpoint: median survival time, dose: 2.5 mg/kg/injection, vehicle: saline with Tween-80, higher = longer survival) was 104 % of control and the T/C (endpoint: median survival time, dose: 5.0 mg/kg/injection, vehicle: saline with Tween-80, higher = longer survival) was 95 % of control. The T/C (endpoint: median survival time, dose: 10.0 mg/kg/injection, vehicle: saline with Tween-80, higher = longer survival) was 113 % of control.

For `O=S(=O)(O)SCCNCCCCCC1CCCCC1`, the T/C (endpoint: mean tumor weight (est.), dose: 0.75 mg/kg/injection, vehicle: saline, higher = larger tumour) was 78 % of control, the T/C (endpoint: mean tumor weight (est.), dose: 1.5 mg/kg/injection, vehicle: saline, higher = larger tumour) was 80 % of control and the T/C (endpoint: mean tumor weight (est.), dose: 3.0 mg/kg/injection, vehicle: saline, higher = larger tumour) was 88 % of control. For the same compound, the T/C (endpoint: mean tumor weight (est.), dose: 6.0 mg/kg/injection, vehicle: saline, higher = larger tumour) was 100 % of control, the T/C (endpoint: median survival time, dose: 0.75 mg/kg/injection, vehicle: saline, higher = longer survival) was 94 % of control and the T/C (endpoint: median survival time, dose: 1.5 mg/kg/injection, vehicle: saline, higher = longer survival) was 111 % of control. For the same compound, the T/C (endpoint: median survival time, dose: 3.0 mg/kg/injection, vehicle: saline, higher = longer survival) was 107 % of control and the T/C (endpoint: median survival time, dose: 6.0 mg/kg/injection, vehicle: saline, higher = longer survival) was 96 % of control.

With `O=[N+]([O-])c1cc(S(=O)(=O)OCC2CO2)ccc1Cl` (stereo not given) the T/C (endpoint: mean tumor weight (est.), dose: 6.25 mg/kg/injection, vehicle: saline with Tween-80, higher = larger tumour) was 66 % of control, the T/C [9] was 70 % of control and the T/C [10] was 47 % of control. For the same compound, the T/C (endpoint: median survival time, dose: 6.25 mg/kg/injection, vehicle: saline with Tween-80, higher = longer survival) was 100 % of control, the T/C [11] was 90 % of control and the T/C [12] was 101 % of control.

With `NC(C(=O)O)C(F)(F)C(=O)O` (stereo not given) the T/C (endpoint: median survival time, dose: 3.12 mg/kg/injection, vehicle: saline, higher = longer survival) was 109 % of control, the T/C [1] was 100 % of control and the T/C (endpoint: median survival time, dose: 12.5 mg/kg/injection, vehicle: saline, higher = longer survival) was 104 % of control.

For `C=CCN1/C(=C/C=C\c2sc3ccccc3[n+]2CC=C)Sc2ccccc21`, the T/C (endpoint: mean tumor weight (est.), dose: 0.07 mg/kg/injection, vehicle: saline, higher = larger tumour) was 89 % of control, the T/C (endpoint: mean tumor weight (est.), dose: 0.13 mg/kg/injection, vehicle: saline, higher = larger tumour) was 87 % of control and the T/C [5] was 117 % of control. For the same compound, the T/C [6] was 93 % of control, the T/C [7] was 113 % of control and the T/C (endpoint: median survival time, dose: 0.06 mg/kg/injection, vehicle: saline, higher = longer survival) was 93 % of control. The T/C (endpoint: median survival time, dose: 0.13 mg/kg/injection, vehicle: saline, higher = longer survival) was 86 % of control, the T/C [8] was 87 % of control and the T/C [3] was 89 % of control.
